From PubChem BioAssay (NCI)
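A five-concentration, 48-hour dose response in 96-well plates underlies each endpoint, interpolated linearly between surrounding concentrations. The concentration for full growth arrest is given as TGI.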

Legend:
Assay in all cases: NCI tumour cell line growth inhibition, 48 h
[1] = system: A498 renal
[2] = system: DU-145 prostate
[3] = system: HCT-15 colon
[4] = system: HL-60(TB) leukemia
[5] = system: HT29 colon
[6] = system: IGROV1 ovarian
[7] = system: M14 melanoma
[8] = system: MALME-3M melanoma
[9] = system: MDA-N
[10] = system: NCI/ADR-RES ovarian
[11] = system: OVCAR-8 ovarian
[12] = system: PC-3 prostate
[13] = system: RXF 393 renal
[14] = system: SF-268 CNS
[15] = system: SK-MEL-2 melanoma
[16] = system: SK-OV-3 ovarian
[17] = system: SNB-75 CNS
[18] = system: U251 CNS
[19] = system: UO-31 renal
[20] = system: LOX IMVI melanoma

Structure (SMILES)	TGI [1] [µM]	TGI [2] [µM]	TGI [3] [µM]	TGI [4] [µM]	TGI [5] [µM]	TGI [6] [µM]	TGI [7] [µM]	TGI [8] [µM]	TGI [9] [µM]	TGI [10] [µM]	TGI [11] [µM]	TGI [12] [µM]	TGI [13] [µM]	TGI [14] [µM]	TGI [15] [µM]	TGI [16] [µM]	TGI [17] [µM]	TGI [18] [µM]	TGI [19] [µM]	TGI [20] [µM]
COC1(OC)N=C(N)C2(C#N)C3(C(=O)N(C(C)C)N=C3C)C12C#N (stereo not given)	> 100	> 100	> 100	> 100	> 100	> 100	> 100	> 100	> 100	> 100	> 100	> 100	> 100	> 100	> 100	> 100	> 100	> 100	> 100	–
Cc1cc(S(=O)(=O)NC2=NC(c3ccccc3)c3cc(Cl)ccc3N2)c(S)cc1Cl (stereo not given)	> 100	> 100	> 100	> 100	> 100	> 100	> 100	> 100	> 100	> 100	> 100	> 100	> 100	> 100	–	> 100	> 100	> 100	83.7	> 100
C[n+]1c2ccccc2n2c3ccccc3c(NCCc3ccccn3)c(C#N)c21	14	7.01	17.4	7.9	> 100	–	6.56	12	4.87	> 60	–	23.9	4.62	> 22.4	7.73	17.8	5.22	12.7	6.51	3.41
CCOP(=O)(Nc1ccccc1P(=O)(OCC)OCC)OCC	> 100	> 100	> 100	–	> 100	> 100	> 100	> 100	> 100	> 100	> 100	> 100	> 100	> 100	> 100	> 100	> 100	> 100	> 100	–
COc1cc(/C=C/c2nc(N)nnc2C)cc(OC)c1OC	> 71.6	> 100	38.9	8.36	39	37.3	> 56.4	32.8	> 100	> 90.2	> 100	> 53	> 64.4	> 54.4	> 54.4	> 65.6	–	> 100	> 42	> 35.9
CCN1C(=O)/C(=C2\SC(c3ccccc3)(c3ccccc3)c3ccccc32)SC1=S	> 100	> 100	> 100	–	> 100	> 100	> 100	> 100	> 100	> 100	> 100	> 100	> 100	> 100	–	> 100	> 100	> 100	> 100	> 100
COC(=O)c1ccc(NCc2c(O)ccc(O)c2Br)cc1Cl	> 100	30.4	35.9	4.52	40.2	28.7	33.3	33.2	26	44.9	30	44	–	41.2	40.8	> 100	70.2	30.4	29.8	27.3
COc1ccc(-c2nnc3n(Cc4ccccc4)c4ccccc4n3c2=O)cc1	99.6	> 100	> 100	> 100	> 100	63.7	> 100	> 100	> 100	> 100	> 100	32.4	61.8	> 100	> 100	–	41.8	55	> 100	> 100
N#CCCN(CCC#N)c1ccc(C(N=Nc2ccccc2)=Nc2ccc(Cl)cc2)cc1	> 100	> 100	> 100	–	> 100	> 100	> 100	–	> 100	> 100	> 100	> 100	> 100	> 100	–	> 100	> 100	> 100	> 100	–
O=c1c(C2=NCCC2)c(-c2ccc[nH]2)[nH]n1-c1ccccc1	> 100	> 100	> 100	> 100	> 100	–	> 100	> 100	> 100	> 100	> 100	> 100	> 100	> 100	> 100	> 100	> 100	> 100	> 100	> 100
O=c1cc(N2CCCC2)[nH]c(=O)n1-c1ccc(F)cc1	> 100	> 100	> 100	> 100	> 100	> 100	> 100	> 100	> 100	> 100	> 100	> 100	> 100	> 100	> 100	> 100	> 100	> 100	–	> 100
CC1(C)OCC(C2OC(OC(=O)c3ccc([N+](=O)[O-])cc3)C3OC(C)(C)OC23)O1 (stereo not given)	> 100	> 100	> 100	–	> 100	> 100	> 100	> 100	> 100	> 100	> 100	> 100	> 100	> 100	> 100	> 100	54.3	> 100	> 100	> 100
CCOC(=O)C1C(c2ccc(O)c(OC)c2)c2c([nH][nH]c2=O)CC1(C)O (stereo not given)	> 100	> 100	> 100	> 100	> 100	> 100	> 100	> 100	> 100	> 100	> 100	> 100	–	> 100	> 100	–	> 100	> 100	> 100	> 100
